In the NIST ThermoML archive (doi:10.1021/je700288s):
Several values for one entry are separate records, joined by “and”; a condition that tells them apart may be missing. Equal values may be shown once.

Key:
[1] = 283.15 K; 101 kPa; Liquid; Vibrating tube method
[2] = mn = molality of the nth substance listed, in mol/kg; settings: 101 kPa, Liquid; for speed of sound: Sing-around technique in a fixed-path interferometer; for mass density: Vibrating tube method

O [water]
Settings | mass density [kg/m3]
[1] | 999.699

C[C@H](N)C(=O)O [(S)-2-aminopropanoic acid] + O
[2]
Settings | mass density, m1 = 0.23 | mass density, m1 = 0.47 | mass density, m1 = 0.72 | speed of sound, m1 = 0.23 | speed of sound, m1 = 0.47 | speed of sound, m1 = 0.72
283.15 K | 1006.29 kg/m3 and 1006.34 kg/m3 | 1012.74 kg/m3 and 1012.69 kg/m3 | 1018.71 kg/m3 and 1019.09 kg/m3 | 1464.4 m/s and 1464.1 m/s | 1480.4 m/s and 1480.5 m/s | 1496.7 m/s and 1495.8 m/s
288.15 K | 1005.65 kg/m3 and 1005.61 kg/m3 | 1011.96 kg/m3 and 1011.92 kg/m3 | 1017.87 kg/m3 and 1018.24 kg/m3 | 1482 m/s and 1481.8 m/s | 1497.6 m/s and 1497.4 m/s | 1512.2 m/s and 1513 m/s
293.15 K | 1004.68 kg/m3 and 1004.64 kg/m3 | 1010.93 kg/m3 and 1010.89 kg/m3 | 1016.77 kg/m3 and 1017.14 kg/m3 | 1497.7 m/s and 1497.4 m/s | 1512.4 m/s and 1512.6 m/s | 1527.5 m/s and 1526.7 m/s
298.15 K | 1003.46 kg/m3 and 1003.43 kg/m3 | 1009.62 kg/m3 and 1009.66 kg/m3 | 1015.82 kg/m3 and 1015.45 kg/m3 | 1511.4 m/s and 1511.1 m/s | 1525.6 m/s and 1525.8 m/s | 1540.1 m/s and 1539.4 m/s
303.15 K | 1001.98 kg/m3 and 1002.01 kg/m3 | 1008.13 kg/m3 and 1008.17 kg/m3 | 1014.29 kg/m3 and 1013.92 kg/m3 | 1523.3 m/s and 1523.1 m/s | 1537.1 m/s and 1537.2 m/s | 1551 m/s and 1550.3 m/s
308.15 K | 1000.33 kg/m3 and 1000.36 kg/m3 | 1006.44 kg/m3 and 1006.48 kg/m3 | 1012.57 kg/m3 and 1012.19 kg/m3 | 1533.6 m/s and 1533.3 m/s | 1546.9 m/s and 1547 m/s | 1560.4 m/s and 1559.7 m/s
